Results taken from patent US9546157B2, “Asymmetric piperidinyl-substituted ureas as medicines” (Helsinn Healthcare SA, priority 2014, dated 2017).
Entries after “also recorded” stand apart in the source; their conditions may differ.

Tests used:
[1] = target: T1, GHSR1a (Homo sapiens, UniProt Q92847); assay: Calcium FLIPR assay, GHSR-1a antagonism (reduction of ghrelin response); assay type: cell-based; details: HEK293/GHSR1a cells, ghrelin 10 nM
T1 construct: expressed in transfected cells; host or cells: HEK293
Summary of the method: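 HEK293 cells expressing GHSR1a, seeded 24 hr earlier and loaded with calcium dye for 30-60 min at room temperature or 37° C, were read by FLIPR fluorescence. Agonism: compound added at t=20 sec, calcium followed 2 minutes. Antagonism: compound plus ghrelin (10 nM) at t=20 sec; potency from reduction of ghrelin response.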

[2] = Metabolic Stability (H = Human); assay type: in vitro ADME
[3] = tested on: Marchigian Sardinian alcohol-preferring (msP) rats; assay: Operant ethanol self-administration in msP rats; assay type: in vivo, rat; details: for operant responding for alcohol (10% ethanol self-administration), overall: oral 1 h before 30-min session, all doses tested (H0847 1, 3; H0816 3, 10; H0900 and H0860 3, 30 mg/kg)
Description: Training continued until stable baseline of alcohol responding was achieved. At this point, before initiation of treatments, rats were trained to gavage administration procedures for three consecutive days (pre-treatment phase) during which they received drug vehicle. At this point animals were tested for the effect of ghrelin antagonists on 10% (v/v) ethanol self-administration. Using a within-subject Latin square design, the first group of msP rats (N=12) was tested for the effect of H0847 (0.0, 1.0 and 3.0 mg/kg), while the second (N=12) was treated with H0816 (0.0, 3.0 and 10.0 mg/kg).
Once the experiment was finished, animals were left in their home cages for several days, in order to wash out the drugs. Then, the same rats were employed to test the remaining ghrelin antagonists compounds H0900 (0.0, 3.0 and 30.0 mg/kg) and H0860 (0.0, 3.0 and 30.0 mg/kg). Once a stable self-administration baseline was reached, treatments begun according to the same experimental procedures described for the previous drugs tested.
All the drugs (or vehicles) were administered orally 1 hour before the beginning of the operant session.
Male genetically selected alcohol-preferring Marchigian Sardinian (msP) rats were used (N=24). At the time of the experiments their body weight ranged between 350 and 400 g. They were housed 4 per cages in a room with a reverse 12:12 h light/dark cycle (lights off at 9:30 a.m.), temperature of 20-22° C. and humidity of 45-55%. Rats were offered free access to tap water and food pellets (4RF18, Mucedola, Settimo Milanese, Italy). All the procedures were conducted in adherence with the European Community Council Directive for Care and Use of Laboratory Animals and the National Institutes of Health Guide for the Care and Use of Laboratory Animals.
75 mg of each H0900 and H0860 were accurately weighed and suspended in 10 ml of 0.5% carboxymethyl cellulose sodium salt solution (CMC, Sigma-Aldrich Cat. C4888, lot 120M0216V). The lower dose solution was prepared by dilution of 30 mg/ml suspension with 0.5% CMC solution.
37.5 mg of H0816 were accurately weighed and suspended in 15 ml of 0.5% carboxymethyl cellulose sodium salt solution (CMC, Sigma-Aldrich Cat. C4888, lot 120M0216V). The lower dose solution was prepared by dilution of mg/ml suspension with 0.5% CMC solution.
11.25 mg of H0847 were accurately weighed and suspended in 15 ml of 0.5% carboxymethyl cellulose sodium salt solution (CMC, Sigma-Aldrich Cat. C4888, lot 120M0216V). The lower dose solution was prepared by dilution of mg/ml suspension with 0.5% CMC solution.
Suspensions were prepared freshly on test day. Vehicle was composed of a solution of 0.5% carboxymethyl cellulose sodium salt and was prepared by dissolving 1 g of CMC in 200 ml of distilled water. Vehicle and drugs were administered by gavage in a volume of 4 ml/kg of body weight 1 hour before the access to 10% alcohol solution. 10% (v/v) ethanol solution was prepared every two days by diluting 95% (v/v) ethanol solution (F.L. CARSETTI s.n.c-CAMERINO) in drinkable water.
The self-administration stations consisted of operant conditioning chambers (Med Associate, Inc) enclosed in sound-attenuating, ventilated environmental cubicles. Each chamber was equipped with a drinking reservoir (volume capacity: […]) positioned 4 cm above the grid floor in the centre of the front panel of the chamber, two retractable levers located 3 cm (one to the right and the other to the left) of the drinking receptacle and a white cue light located 6 cm above the lever. […] An IBM-compatible computer controlled the delivery of fluids (activation of syringe pump), presentation of visual stimuli and recording of the behavioral data.
Using operant self-administration chambers (Med Associates), msP rats were trained to lever press for 10% alcohol (v/v) until stable baseline of responding were achieved. 16 self-administration training sessions were carried out to train the animals. […]

[4] = Metabolic Stability (M = Mouse); assay type: in vitro ADME
[5] = tested on: C57BL/6J mice; assay: Food intake test in mouse (GHSR1a antagonists); assay type: in vivo; details: for inhibition in vivo at 10 mg/kg / inhibition in vivo at 30 mg/kg: Mus musculus, po
Summary of the method: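 Male C57BL/6J mice (18-22 g) were fasted overnight (16 h before dosing), then randomized by body weight to vehicle or test agent (n=6 each). Cumulative food intake was measured at 1, 2, 4, 8 and 24 hrs post-dose as premeasured food minus uneaten food.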

[6] = 3 mg/kg oral 1 h before session
[7] = 30 mg/kg oral 1 h before session

T1 sequence (Q92847 whole entry): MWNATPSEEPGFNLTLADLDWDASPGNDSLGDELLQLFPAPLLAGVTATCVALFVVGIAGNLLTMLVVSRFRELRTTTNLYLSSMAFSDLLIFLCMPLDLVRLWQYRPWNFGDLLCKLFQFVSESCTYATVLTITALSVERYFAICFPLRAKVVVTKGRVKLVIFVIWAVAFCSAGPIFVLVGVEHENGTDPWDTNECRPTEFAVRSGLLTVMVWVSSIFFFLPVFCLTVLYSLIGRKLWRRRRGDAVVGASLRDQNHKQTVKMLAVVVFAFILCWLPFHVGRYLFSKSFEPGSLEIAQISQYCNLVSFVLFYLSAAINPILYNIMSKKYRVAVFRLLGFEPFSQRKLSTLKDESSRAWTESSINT

IC50 [1] [nM]	Metabolic Stability H [2]	Metabolic Stability M [4]	SMILES	alcohol self-administration, post hoc [3, 6]	alcohol self-administration, post hoc [3, 7]	operant responding for alcohol (10% ethanol self-administration), overall [3]	inhibition in vivo at 10 mg/kg ([5]; 1 h, PO 10 mg/kg + ANA 30 mg/kg mice) [%]	inhibition in vivo at 30 mg/kg ([5]; 30 mg/kg PO fasted mice, time not given) [%]	inhibition in vivo at 10 mg/kg ([5]; 1 h, PO 10 mg/kg + ANA 30 mg/kg fed mice) [%]	inhibition in vivo at 30 mg/kg ([5]; 1 h, PO 30 mg/kg + ANA 30 mg/kg fed mice) [%]	inhibition in vivo at 30 mg/kg ([5]; 1 h, PO 30 mg/kg fasted mice) [%]	inhibition in vivo at 30 mg/kg ([5]; 1 h, PO 30 mg/kg fed mice) [%]	Mouse Food Intake, result in words ([5]; PO 10 mg/kg + ANA (ANAM) 30 mg/kg mice)
3	High H High M	High H High M	CC[C@H](NC(=O)N(C)C1CCN(C)CC1)c1ccc(-c2cnccn2)c(Cl)c1Cl [Compound H0860, (S)-3-(1-(2,3-dichloro-4-(pyrazin-2-yl)phenyl)propyl)-1-methyl-1-(1-methylpiperidin-4-yl)urea]	only the higher dose (30 mg/kg) reduced ethanol self-administration	significant reduction of alcohol self-administration	significantly reduced operant responding for alcohol; also recorded: statistically significant decrease in ethanol self-administration	68	–	–	–	–	–	–
5.1	–	–	C[C@H](NC(=O)N(C)C1CCN(C)CC1)c1ccc(-c2cnccn2)c(Cl)c1Cl [Compound H0816, (S)-3-(1-(2,3-dichloro-4-(pyrazin-2-yl)phenyl)ethyl)-1-methyl-1-(1-methylpiperidin-4-yl)urea]	–	–	had no effect on operant responding for alcohol; also recorded: had no effect on ethanol responses	–	12	–	–	–	–	–
3	Medium	High	CN1CCC(N(C)C(=O)N[C@H](c2ccc(-c3cnccn3)c(Cl)c2Cl)C(F)(F)F)CC1 [Compound H0900, (R)-3-(1-(2,3-dichloro-4-(pyrazin-2-yl)phenyl)-2,2,2-trifluoroethyl)-1-methyl-1-(1-methylpiperidin-4-yl)urea]	significant reduction of alcohol self-administration	significant reduction of alcohol self-administration	significantly reduced operant responding for alcohol; also recorded: statistically significant decrease in ethanol self-administration	–	–	60	91	26	90	–
2	High H High M	High H High M	C[C@H](NC(=O)N(C)C1CCN(C)CC1)c1ccc(-c2cncc(F)n2)c(Cl)c1Cl [Compound H0847, (S)-3-(1-(2,3-dichloro-4-(6-fluoropyrazin-2-yl)phenyl)ethyl)-1-methyl-1-(1-methylpiperidin-4-yl)urea]	–	–	had no effect on operant responding for alcohol; also recorded: had no effect on ethanol responses	–	–	–	–	–	–	PO 10 mg/kg + ANA 30 mg/kg mice: NSE
